Results: patent US9284283B2, “Macrocyclic compounds for modulating IL-17” (ENSEMBLE THERAPEUTICS CORPORATION, priority 2012, dated 2016)

Key:
[1] = target: T1, biotinylated human IL-17 (binding to IL17R/Fc) (Homo sapiens, UniProt Q16552); experiment: IL-17 competition ELISA II (captured IL17R/Fc, biotinylated IL-17)
T1 construct: purchased R&D Systems 317-ILB (IL-17, biotinylated); 177-IR (IL17R/Fc)
T1 sequence (Q16552 20-155 limits assumed): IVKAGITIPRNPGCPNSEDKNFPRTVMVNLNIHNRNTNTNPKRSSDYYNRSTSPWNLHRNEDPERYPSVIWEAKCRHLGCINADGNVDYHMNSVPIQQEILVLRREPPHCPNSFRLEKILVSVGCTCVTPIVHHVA
How it was run: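 Anti-human IgG-coated plates captured IL17R/Fc (10 nM), then compound (5-fold dilutions from 1 μM) and biotinylated human IL-17 (20 nM stock) were added for 30 min at room temperature in PBST. Bound IL-17 detected by streptavidin-HRP/TMB at 450 nm. IC50 from 4-parameter logistic fit between no-competitor and blank controls.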

[2] = test system: IL-17A induced secretion of IL-6 in primary human RASF cells; experiment: Inhibition of IL17A induced secretion of IL6 in human rheumatoid arthritis synovial fibroblast (RASF) cells; type: cell-based; conditions: Homo sapiens, Fibroblast
Procedure: This assay was used to determine the extent of inhibition of IL-17A induced secretion of IL-6 in primary human rheumatoid synovial fibroblast (RASF) cells by compounds of the invention. IL-17A is known to stimulate IL-6 production in RASF cells.
Low passage (passage 2-8) Primary human RASF cells (Asterand) were maintained in maintenance medium. Cells were detached from flasks by tryptic digestion and the cell density of the suspension determined. To each well of a 96 well culture plate was added 100 μL of seeding medium containing 50,000 cells/mL and the plate incubated overnight in a humidified 37° C., 5% CO2 incubator. The medium was replaced with fresh assay medium and cells were incubated for additional 5 hours in a humidified 37° C., 5% CO2 incubator prior to stimulation with recombinant human IL-17A (“rhIL-17A”). Prior to addition to cells, rhIL-17A (30 ng/mL) in assay medium was incubated with either DMSO alone, compounds, or anti-IL17 receptor antibody (3 μg/mL) for 1 hour at 37° C. The final concentration of DMSO in all samples was 0.25%. The final concentration of compounds varied from 0.03 μM to 25 μM.
Immediately before stimulation, cells were washed once with fresh assay medium. Then, 100 μL of the test samples was added in triplicate wells and the plates incubated for 20 hours in a humidified 37° C., 5% CO2 incubator. The assay medium from each well was collected and the IL-6 concentration in cell culture supernatants was determined by ELISA either immediately or after storage at −20° C.
A water-soluble tetrazolium salt (WST1) viability assay was immediately performed on the cells after the conditioned medium was collected using a WST1 reagent purchased from Roche. The concentration of IL-6 obtained from ELISA was normalized by the WST1 data.

[3] = target: T2, recombinant human IL17a (binding to its receptor IL17R) (Homo sapiens, UniProt Q16552); experiment: IL-17 competition ELISA I (IL17a coated, IL17R/Fc binding)
T2 construct: purchased R&D Systems 317-ILB (IL17a); 177-IR (IL17R/Fc)
T2 sequence (Q16552 20-155 limits assumed): T1 sequence (Q16552 20-155 limits assumed)
How it was run: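 Plates coated with 20 nM recombinant human IL17a received compound dilutions and 12 nM IL17R/Fc (final) for 30 min at room temperature. Bound receptor was detected with HRP anti-human Fc and TMB, read at 450 nm. IC50 came from a 4-parameter logistic fit between no-competitor and blank controls.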

SMILES	IC50 [1] [nM]	IC50 [3] [nM]	IC50 [2] [nM]
O=C1CNC(=O)[C@@H](Cc2ccc(NC(=O)[C@@H](NC(=O)Cc3ccc(F)cc3)C3CCCCC3)cc2)NC(=O)CC2(CCCC2)CC(=O)NCCCCCN1 [Compound 380]	–	–	100 to 1000
Cc1ccccc1C[C@H](NC(=O)C(F)(F)c1ccccc1)C(=O)Nc1ccc(C[C@H]2NC(=O)CC3(CCCC3)CC(=O)N(C)CCCCCNC(=O)[C@@H](C)NC2=O)cc1 [Compound 512]	–	–	100 to 1000
O=C1CNC(=O)[C@@H](Cc2ccc(NC(=O)[C@@H](NC(=O)c3cccnc3)C3CCCCC3)cc2)NC(=O)CC2(CCCC2)CC(=O)NCCCCCN1 [Compound 362]	100 to 1000	1000 to 10000	–
O=C1CNC(=O)[C@@H](Cc2ccc(NC(=O)[C@@H](NC(=O)c3cccnc3)C3CCCCC3)cc2)NC(=O)CC2(CCCC2)CC(=O)N[C@H](C(=O)O)CCCCN1 [Compound 384]	< 100	100 to 1000	–
O=C1CC2(CCCC2)CC(=O)N[C@H](Cc2ccc(NC(=O)[C@@H](NC(=O)Cc3ccc(CO)cc3)C3CCCCC3)cc2)C(=O)NCCCCCCCN1 [Compound 357]	< 100	100 to 1000	–
CN1CCCCCCCCN(C)C(=O)[C@@H](Cc2ccc(N(C)C(=O)[C@H](Cc3ccccc3Cl)N(C)C(=O)c3ccccc3)cc2)N(C)C(=O)CC2(CCCC2)CC1=O [Compound 372]	100 to 1000	1000 to 10000	–
O=C1CNC(=O)[C@@H](Cc2ccc(NC(=O)[C@H](Cc3ccccc3Cl)NC(=O)Cc3cccnc3)cc2)NC(=O)CC2(CCCC2)CC(=O)NCCCCCN1 [Compound 198]	–	–	1000 to 10000
CN1CCCCCNC(=O)CNC(=O)[C@@H](Cc2ccc(NC(=O)[C@H](Cc3ccccc3Cl)NC(=O)Cc3ccccc3)cc2)NC(=O)CC2(CCCC2)CC1=O [Compound 280]	< 100	< 100	–
CC(C)C[C@H](NC(=O)Cc1ccccc1)C(=O)Nc1ccc(C[C@H]2NC(=O)CC3(CCCC3)CC(=O)NCCCCCNC(=O)CNC2=O)cc1 [Compound 310]	< 100	100 to 1000	–
O=C1CC2(CCCC2)CC(=O)N[C@H](Cc2ccc(NC(=O)[C@@H](NC(=O)Cc3ccccc3)C3CCCCC3)cc2)C(=O)NCCOCCOCCN1 [Compound 333]	< 100	100 to 1000	–
O=C1CNC(=O)[C@@H](Cc2ccc(NC(=O)[C@@H](NC(=O)Cc3ccc(F)c(F)c3)C3CCCCC3)cc2)NC(=O)CC2(CCCC2)CC(=O)NCCCCCN1 [Compound 373]	< 100	< 100	–
O=C1CC2(CCCC2)CC(=O)N[C@H](Cc2ccc(NC(=O)[C@@H](NC(=O)Cc3ccccc3)C3CCCCC3)cc2)C(=O)NCCCCCCCN1 [Compound 348]	100 to 1000	1000 to 10000	–
O=C1CC2(CCCC2)CC(=O)N[C@H](Cc2ccc(NC(=O)[C@H](Cc3ccccc3Cl)NC(=O)Cc3ccccc3)cc2)C(=O)NCCCCCCCCCN1 [Compound 349]	< 100	1000 to 10000	–
O=C1CC2(CCCC2)CC(=O)N[C@H](Cc2ccc(NC(=O)[C@H](Cc3ccccc3Cl)NC(=O)Cc3ccccc3)cc2)C(=O)NCCCCCCCCN1 [Compound 259]	< 100	100 to 1000	–
O=C1CNC(=O)[C@@H](Cc2ccc(NC(=O)[C@@H](NC(=O)Cc3ccccn3)C3CCCCC3)cc2)NC(=O)CC2(CCCC2)CC(=O)NCCCCCN1 [Compound 381]	< 100	100 to 1000	–

More lines, main results first:

IC50 [1] [nM]	IC50 [3] [nM]	SMILES	IC50 [2] [nM]
< 100	–	C[C@H]1NC(=O)[C@@H](Cc2ccc(NC(=O)[C@H](Cc3ccccc3Cl)NC(=O)Cc3ccc(F)cc3)cc2)NC(=O)CC2(CCCC2)CC(=O)N(C)CCCCCN(C)C1=O [Compound 488]	1000 to 10000
< 100	–	O=C1CC2(CCCC2)CC(=O)N[C@H](Cc2ccc(NC(=O)[C@H](Cc3ccccc3Cl)NC(=O)Cc3ccc(F)cc3)cc2)C(=O)NCCOCCOCCN1 [Compound 490]	1000 to 10000
< 100	–	C[C@H]1NC(=O)[C@@H](Cc2ccc(NC(=O)[C@H](Cc3ccccc3Cl)NC(=O)Cc3ccc(F)cc3)cc2)NC(=O)CC2(CCCC2)CC(=O)NCCCCCN(C)C1=O [Compound 470]	100 to 1000
< 100	–	C[C@H]1NC(=O)[C@@H](Cc2ccc(NC(=O)[C@H](Cc3ccccc3Cl)NC(=O)Cc3ccc(F)cc3)cc2)NC(=O)CC2(CCCC2)NC(=O)CCNC(=O)CCNC1=O [Compound 593]	100 to 1000
< 100	–	CN1CCCCCNC(=O)CNC(=O)[C@@H](Cc2ccc(NC(=O)[C@H](Cc3ccccc3Cl)NC(=O)Cc3cccc(O)c3)cc2)NC(=O)CC2(CCCC2)CC1=O [Compound 457]	1000 to 10000
< 100	–	O=C1CC2(CCCC2)CC(=O)N[C@H](Cc2ccc(NC(=O)[C@H](Cc3ccccc3Cl)NC(=O)Cc3ccc(OCCN4CCOCC4)cc3)cc2)C(=O)N[C@H](Cc2ccccc2)C(=O)NCCCCCN1 [Compound 439]	100 to 1000
< 100	–	C[C@H]1NC(=O)[C@@H](Cc2ccc(NC(=O)[C@H](Cc3ccccc3Cl)NC(=O)Cc3ccc(N(C)C)cc3)cc2)NC(=O)CC2(CCCC2)CC(=O)N(C)CCN(C)CCN(C)C1=O [Compound 562]	1000 to 10000
< 100	–	Cc1ccccc1C[C@H](NC(=O)Cc1ccc(F)cc1)C(=O)Nc1ccc(C[C@H]2NC(=O)CC3(CCCC3)CC(=O)NCCCCCNC(=O)[C@@H](CCC(N)=O)NC2=O)cc1 [Compound 515]	< 100
< 100	–	C[C@H]1NC(=O)[C@@H](Cc2ccc(NC(=O)[C@H](Cc3ccccc3Cl)NC(=O)C(F)(F)c3ccccc3)cc2)NC(=O)CC2(CCCC2)CC(=O)NCCCCCNC1=O [Compound 434]	100 to 1000
< 100	–	C[C@H]1NC(=O)[C@@H](Cc2ccc(NC(=O)[C@H](Cc3ccccc3Cl)NC(=O)Cc3ccc(F)cc3)cc2)NC(=O)CC2(CCC2)CC(=O)NCCCCCNC1=O [Compound 535]	1000 to 10000
< 100	–	C[C@H]1NC(=O)[C@@H](Cc2ccc(NC(=O)[C@H](Cc3ccccc3Cl)NC(=O)C(F)(F)c3ccccc3)cc2)NC(=O)CC2(CCCC2)CC(=O)N(C)CCN(C)CCN(C)C1=O [Compound 540]	1000 to 10000
< 100	–	C[C@H]1NC(=O)[C@@H](Cc2ccc(NC(=O)[C@H](Cc3ccccc3Cl)NC(=O)C(F)(F)c3ccccc3)cc2)NC(=O)CC2(CCCC2)CC(=O)N(C)CCOCCN(C)C1=O [Compound 567]	100 to 1000
< 100	100 to 1000	O=C1CNC(=O)[C@@H](Cc2ccc(NC(=O)[C@@H](NC(=O)c3cccc(O)c3)C3CCCCC3)cc2)NC(=O)CC2(CCCC2)CC(=O)NCCCCCN1 [Compound 376]	–
< 100	100 to 1000	O=C1CC2(CCCC2)CC(=O)N[C@H](Cc2ccc(NC(=O)[C@H](Cc3ccccc3Cl)NC(=O)Cc3ccc(CO)cc3)cc2)C(=O)NC/C=C/CCCCN1 [Compound 364]	–
< 100	100 to 1000	O=C1CC2(CCCC2)CC(=O)N[C@H](Cc2ccc(NC(=O)[C@H](Cc3ccccc3Cl)NC(=O)Cc3ccc(CO)cc3)cc2)C(=O)NCCCCCCN1 [Compound 354]	–
< 100	100 to 1000	CN1CCCCCNC(=O)CC2(CCCC2)CC(=O)N[C@H](Cc2ccc(NC(=O)[C@@H](NC(=O)Cc3ccccc3)C3CCCCC3)cc2)C(=O)NCC1=O [Compound 335]	–
< 100	100 to 1000	CCCC[C@H](NC(=O)Cc1ccccc1)C(=O)Nc1ccc(C[C@H]2NC(=O)CC3(CCCC3)CC(=O)NCCCCCNC(=O)CNC2=O)cc1 [Compound 312]	–
< 100	1000 to 10000	O=C1CC2(CCCC2)CC(=O)N[C@H](Cc2ccc(NC(=O)[C@@H](NC(=O)Cc3ccc(CO)cc3)C3CCCCC3)cc2)C(=O)NCCCCCCCCCN1 [Compound 359]	–
< 100	< 100	O=C1CNC(=O)[C@@H](Cc2ccc(NC(=O)[C@@H](NC(=O)Cc3ccc(F)cc3F)C3CCCCC3)cc2)NC(=O)CC2(CCCC2)CC(=O)NCCCCCN1 [Compound 374]	–
< 100	100 to 1000	CC[C@H](C)[C@H](NC(=O)Cc1ccccc1)C(=O)Nc1ccc(C[C@H]2NC(=O)CC3(CCCC3)CC(=O)NCCCCCNC(=O)CNC2=O)cc1 [Compound 311]	–
< 100	100 to 1000	O=C1CC2(CCCC2)CC(=O)N[C@H](Cc2ccc(NC(=O)[C@H](Cc3ccccc3Cl)NC(=O)Cc3ccc(CO)cc3)cc2)C(=O)NCCCCCCCN1 [Compound 356]	–
